# Assay results reported in patent US20260284018A1, “DUAL INHIBITORS OF DYRK1A AND 5-HT2 FOR TREATING A BRAIN DISORDER” (THE REGENTS OF THE UNIVERSITY OF CALIFORNIA, priority 2023, published 2026).
# How the values were obtained:
# [1] = biological target: T1, FAK (Homo sapiens, UniProt Q05397); details: 10 μM; cited from earlier work
# T1 construct: purchased Eurofins DiscoverX
# [2] = biological target: T2, SNARK (Homo sapiens, UniProt Q9H093); details: 10 μM; cited from earlier work
# T2 construct: purchased Eurofins DiscoverX KINOMEscan scanEDGE
# T2 sequence (Q9H093 whole entry): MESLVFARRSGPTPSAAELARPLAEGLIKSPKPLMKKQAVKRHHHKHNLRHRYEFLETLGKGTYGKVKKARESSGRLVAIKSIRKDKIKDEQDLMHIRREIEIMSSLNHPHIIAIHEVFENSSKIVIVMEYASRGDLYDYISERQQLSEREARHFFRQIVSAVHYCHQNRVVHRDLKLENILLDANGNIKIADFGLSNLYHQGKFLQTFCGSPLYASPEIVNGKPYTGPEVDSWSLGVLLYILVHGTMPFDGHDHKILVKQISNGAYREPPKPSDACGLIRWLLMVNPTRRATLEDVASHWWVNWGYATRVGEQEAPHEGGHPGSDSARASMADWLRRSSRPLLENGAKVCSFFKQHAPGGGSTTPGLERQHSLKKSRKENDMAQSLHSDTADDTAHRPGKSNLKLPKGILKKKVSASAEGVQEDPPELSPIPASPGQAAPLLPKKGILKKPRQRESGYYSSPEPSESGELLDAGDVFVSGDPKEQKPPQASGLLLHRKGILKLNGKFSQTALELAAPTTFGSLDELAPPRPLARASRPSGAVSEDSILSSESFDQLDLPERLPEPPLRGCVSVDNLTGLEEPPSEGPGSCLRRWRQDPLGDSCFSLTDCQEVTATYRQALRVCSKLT
# [3] = biological target: T3, ERBB2 (Homo sapiens, UniProt P04626); details: 10 μM; cited from earlier work
# T3 construct: purchased Eurofins DiscoverX
# T3 sequence (P04626 23-1255): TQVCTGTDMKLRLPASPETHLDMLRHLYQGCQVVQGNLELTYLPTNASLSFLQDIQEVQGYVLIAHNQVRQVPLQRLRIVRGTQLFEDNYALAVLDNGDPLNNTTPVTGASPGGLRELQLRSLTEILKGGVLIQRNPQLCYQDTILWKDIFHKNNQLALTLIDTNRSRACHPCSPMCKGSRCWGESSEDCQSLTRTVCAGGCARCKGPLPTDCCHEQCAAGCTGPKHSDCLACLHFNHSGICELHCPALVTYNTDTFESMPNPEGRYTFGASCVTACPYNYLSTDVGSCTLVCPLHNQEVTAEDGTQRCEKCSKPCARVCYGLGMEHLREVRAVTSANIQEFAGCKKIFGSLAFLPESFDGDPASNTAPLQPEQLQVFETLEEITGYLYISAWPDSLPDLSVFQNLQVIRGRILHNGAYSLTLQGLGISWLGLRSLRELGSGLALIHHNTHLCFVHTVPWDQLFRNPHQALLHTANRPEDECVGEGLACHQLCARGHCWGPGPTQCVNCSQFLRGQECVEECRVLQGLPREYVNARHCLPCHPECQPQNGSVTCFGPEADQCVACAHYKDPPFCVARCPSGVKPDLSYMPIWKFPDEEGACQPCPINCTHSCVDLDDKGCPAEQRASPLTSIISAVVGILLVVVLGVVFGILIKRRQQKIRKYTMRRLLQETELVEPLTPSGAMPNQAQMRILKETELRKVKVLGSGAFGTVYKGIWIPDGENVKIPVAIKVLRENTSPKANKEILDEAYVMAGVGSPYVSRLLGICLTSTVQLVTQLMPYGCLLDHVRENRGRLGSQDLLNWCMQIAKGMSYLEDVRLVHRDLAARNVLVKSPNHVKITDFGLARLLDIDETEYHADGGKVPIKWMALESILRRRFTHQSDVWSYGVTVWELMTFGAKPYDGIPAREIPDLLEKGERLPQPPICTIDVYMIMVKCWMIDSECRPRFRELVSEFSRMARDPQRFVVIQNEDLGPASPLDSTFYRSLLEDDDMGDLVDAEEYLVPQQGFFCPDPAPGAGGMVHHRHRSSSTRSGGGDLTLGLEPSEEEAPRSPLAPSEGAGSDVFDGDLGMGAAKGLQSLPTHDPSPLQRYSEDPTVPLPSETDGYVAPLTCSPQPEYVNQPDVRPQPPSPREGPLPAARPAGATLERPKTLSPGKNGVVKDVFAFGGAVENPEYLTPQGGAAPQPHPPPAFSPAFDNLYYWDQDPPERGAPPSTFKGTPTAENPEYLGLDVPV
# [4] = biological target: T4, p38-alpha (Homo sapiens, UniProt Q16539); details: 10 μM; cited from earlier work
# T4 construct: purchased Eurofins DiscoverX (KINOMEscan scanEDGE service)
# [5] = biological target: T5, PIM3 (Homo sapiens, UniProt Q86V86); details: 10 μM; cited from earlier work
# T5 construct: purchased Eurofins DiscoverX (KINOMEscan scanEDGE service)
# [6] = biological target: T6, FGFR2 (Homo sapiens, UniProt P21802); details: 10 μM; cited from earlier work
# T6 construct: purchased Eurofins DiscoverX
# [7] = biological target: T7, MLK1 (Homo sapiens, UniProt P80192); details: 10 μM; cited from earlier work
# T7 construct: purchased Eurofins DiscoverX (KINOMEscan scanEDGE service)
# [8] = biological target: T8, BRAF(V600E) (Homo sapiens, UniProt P15056, V600E); details: 10 μM; cited from earlier work
# T8 construct: purchased Eurofins DiscoverX
# [9] = biological target: T9, YANK3 (Homo sapiens, UniProt Q86UX6); details: 10 μM; cited from earlier work
# T9 construct: purchased Eurofins DiscoverX KINOMEscan scanEDGE
# [10] = biological target: T10, FGFR3 (Homo sapiens, UniProt P22607); details: 10 μM; cited from earlier work
# T10 construct: purchased Eurofins DiscoverX
# [11] = biological target: T11, ABL1(E255K)-phosphorylated (Homo sapiens, UniProt P00519, E255K); details: 10 μM; cited from earlier work
# T11 construct: purchased Eurofins DiscoverX
# T11 sequence (P00519 whole entry E255K): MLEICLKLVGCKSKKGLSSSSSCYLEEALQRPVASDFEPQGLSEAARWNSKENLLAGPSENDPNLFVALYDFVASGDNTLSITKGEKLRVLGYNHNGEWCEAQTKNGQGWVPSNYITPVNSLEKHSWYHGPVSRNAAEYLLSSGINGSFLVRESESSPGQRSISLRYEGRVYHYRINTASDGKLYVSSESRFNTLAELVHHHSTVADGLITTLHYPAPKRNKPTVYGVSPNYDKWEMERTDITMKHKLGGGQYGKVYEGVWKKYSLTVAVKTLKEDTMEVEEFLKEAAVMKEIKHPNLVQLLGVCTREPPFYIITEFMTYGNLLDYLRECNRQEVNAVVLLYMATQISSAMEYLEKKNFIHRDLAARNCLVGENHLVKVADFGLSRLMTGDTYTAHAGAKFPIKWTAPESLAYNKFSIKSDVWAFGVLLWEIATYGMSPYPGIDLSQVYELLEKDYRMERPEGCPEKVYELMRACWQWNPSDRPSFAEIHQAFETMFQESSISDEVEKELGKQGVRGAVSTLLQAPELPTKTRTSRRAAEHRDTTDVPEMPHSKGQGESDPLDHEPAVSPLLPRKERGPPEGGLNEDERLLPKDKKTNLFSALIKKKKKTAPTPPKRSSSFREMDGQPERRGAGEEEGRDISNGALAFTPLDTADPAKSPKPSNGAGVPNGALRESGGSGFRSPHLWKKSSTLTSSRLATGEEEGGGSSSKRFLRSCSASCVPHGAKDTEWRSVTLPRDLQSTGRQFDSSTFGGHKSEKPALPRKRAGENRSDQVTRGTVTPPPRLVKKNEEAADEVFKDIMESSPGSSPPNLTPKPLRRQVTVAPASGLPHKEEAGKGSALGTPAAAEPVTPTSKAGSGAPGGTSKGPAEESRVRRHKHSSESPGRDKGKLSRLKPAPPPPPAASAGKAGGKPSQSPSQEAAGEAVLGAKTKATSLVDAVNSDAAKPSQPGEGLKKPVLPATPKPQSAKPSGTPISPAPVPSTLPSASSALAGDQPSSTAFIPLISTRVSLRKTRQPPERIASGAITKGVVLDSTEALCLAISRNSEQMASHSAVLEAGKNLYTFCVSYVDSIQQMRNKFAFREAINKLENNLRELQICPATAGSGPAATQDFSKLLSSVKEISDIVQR
# [12] = biological target: T12, PKAC-alpha (Homo sapiens, UniProt P17612); details: 10 μM; cited from earlier work
# T12 construct: purchased Eurofins DiscoverX KINOMEscan scanEDGE
# [13] = biological target: T13, DYRK1B (Homo sapiens, UniProt Q9Y463); details: 10 μM; cited from earlier work
# T13 construct: purchased Eurofins DiscoverX
# [14] = biological target: T14, PIM1 (Homo sapiens, UniProt P11309); details: 10 μM; cited from earlier work
# T14 construct: purchased Eurofins DiscoverX (KINOMEscan scanEDGE service)
# [15] = biological target: T15, PIM2 (Homo sapiens, UniProt Q9P1W9); details: 10 μM; cited from earlier work
# T15 construct: purchased Eurofins DiscoverX (KINOMEscan scanEDGE service)
# [16] = biological target: T16, ALK (Homo sapiens, UniProt Q9UM73); details: 10 μM; cited from earlier work
# T16 construct: purchased Eurofins DiscoverX
# [17] = biological target: T17, PIK3CG (Homo sapiens, UniProt P48736); details: 10 μM; cited from earlier work
# T17 construct: purchased Eurofins DiscoverX (KINOMEscan scanEDGE service)
# [18] = biological target: T18, MAP3K4 (Homo sapiens, UniProt Q9Y6R4); details: 10 μM; cited from earlier work
# T18 construct: purchased Eurofins DiscoverX (KINOMEscan scanEDGE service)
# [19] = biological target: T19, PDGFRA (Homo sapiens, UniProt P16234); details: 10 μM; cited from earlier work
# T19 construct: purchased Eurofins DiscoverX (KINOMEscan scanEDGE service)
# [20] = biological target: T20, DCAMKL1 (Homo sapiens, UniProt O15075); details: 10 μM; cited from earlier work
# T20 construct: purchased Eurofins DiscoverX
# [21] = biological target: T21, ROCK2 (Homo sapiens, UniProt O75116); details: 10 μM; cited from earlier work
# T21 construct: purchased Eurofins DiscoverX KINOMEscan scanEDGE
# [22] = biological target: T22, AURKB (Homo sapiens, UniProt Q96GD4); details: 10 μM; cited from earlier work
# T22 construct: purchased Eurofins DiscoverX
# T22 sequence (Q96GD4 whole entry): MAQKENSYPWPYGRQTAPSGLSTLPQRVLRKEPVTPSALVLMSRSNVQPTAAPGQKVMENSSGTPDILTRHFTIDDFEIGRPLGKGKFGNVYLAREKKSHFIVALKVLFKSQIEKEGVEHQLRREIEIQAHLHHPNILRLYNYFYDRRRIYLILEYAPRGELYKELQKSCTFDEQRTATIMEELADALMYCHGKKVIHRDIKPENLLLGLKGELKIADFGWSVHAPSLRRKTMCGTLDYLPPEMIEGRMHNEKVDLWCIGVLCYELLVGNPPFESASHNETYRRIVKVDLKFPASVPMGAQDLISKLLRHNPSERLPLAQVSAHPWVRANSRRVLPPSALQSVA
# [23] = biological target: T23, ABL1-phosphorylated (Homo sapiens, UniProt P00519); details: 10 μM; cited from earlier work
# T23 construct: purchased Eurofins DiscoverX
# T23 sequence (P00519 whole entry): as the sequence (P00519 whole entry E255K) above, with K255E counted along it
# [24] = biological target: T24, BTK (Homo sapiens, UniProt Q06187); details: 10 μM; cited from earlier work
# T24 construct: purchased Eurofins DiscoverX
# T24 sequence (Q06187 whole entry): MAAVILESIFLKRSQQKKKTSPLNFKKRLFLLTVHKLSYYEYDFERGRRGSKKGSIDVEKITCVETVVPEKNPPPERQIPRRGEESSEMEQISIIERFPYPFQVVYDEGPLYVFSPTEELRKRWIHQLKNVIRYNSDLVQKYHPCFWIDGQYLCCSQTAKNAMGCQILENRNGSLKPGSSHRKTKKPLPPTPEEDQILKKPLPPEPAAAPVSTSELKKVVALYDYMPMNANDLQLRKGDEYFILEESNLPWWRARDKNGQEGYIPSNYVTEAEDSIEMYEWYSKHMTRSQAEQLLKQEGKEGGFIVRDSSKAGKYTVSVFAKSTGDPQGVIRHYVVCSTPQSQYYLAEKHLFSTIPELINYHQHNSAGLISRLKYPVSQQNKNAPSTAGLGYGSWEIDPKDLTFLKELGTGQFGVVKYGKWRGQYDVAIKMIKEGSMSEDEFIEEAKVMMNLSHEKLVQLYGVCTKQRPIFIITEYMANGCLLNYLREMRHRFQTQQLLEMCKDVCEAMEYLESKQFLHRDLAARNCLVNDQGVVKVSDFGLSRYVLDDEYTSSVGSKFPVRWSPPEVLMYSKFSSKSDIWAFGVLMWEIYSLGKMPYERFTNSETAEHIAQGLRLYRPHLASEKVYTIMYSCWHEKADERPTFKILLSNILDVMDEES
# [25] = biological target: T25, PIK3C2B (Homo sapiens, UniProt O00750); details: 10 μM; cited from earlier work
# T25 construct: purchased Eurofins DiscoverX (KINOMEscan scanEDGE service)
# [26] = biological target: T26, MAPKAPK2 (Homo sapiens, UniProt P49137); details: 10 μM; cited from earlier work
# T26 construct: purchased Eurofins DiscoverX (KINOMEscan scanEDGE service)
# T26 sequence (P49137 whole entry): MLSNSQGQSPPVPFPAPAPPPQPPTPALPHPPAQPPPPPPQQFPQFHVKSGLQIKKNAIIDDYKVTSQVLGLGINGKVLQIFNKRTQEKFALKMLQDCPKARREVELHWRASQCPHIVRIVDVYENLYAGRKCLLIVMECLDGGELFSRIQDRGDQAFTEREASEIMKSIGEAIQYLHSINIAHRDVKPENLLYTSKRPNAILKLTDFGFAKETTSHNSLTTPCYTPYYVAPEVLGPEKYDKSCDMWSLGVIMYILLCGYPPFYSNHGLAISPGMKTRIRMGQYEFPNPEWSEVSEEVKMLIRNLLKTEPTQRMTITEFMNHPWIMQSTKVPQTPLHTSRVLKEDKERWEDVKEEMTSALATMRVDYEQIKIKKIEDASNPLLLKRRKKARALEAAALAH
# [27] = test system: 97 kinases; assay: KINOMEscan scanEDGE, whole panel; assay type: binding; details: 10 μM
# Protocol: Compounds were screened at 10 μM using the DiscoverX KinomeSCAN™ assay. Results are reported as the % activity relative to the vehicle (i.e., DMSO) control, where lower values indicate higher affinity (see Table 1 for full scan data). The activity of HTW_A_8 fumarate at PIK3CG was minimal (33%) and barely met the threshold for inclusion. […] Data for harmine were obtained from a previous report.
# Kinome Scan. Compound HTW_A_8 fumarate was screened against 97 kinases at a single concentration of 10 μM at Eurofins DiscoverX using their KINOMEscan™ scanEDGE assay. The results are reported as the % activity relative to DMSO control, where lower values indicate higher affinity. See Table 1 for the full kinome profile.
compound,measurement,setting,value
"COc1ccc2c(c1)[nH]c1c(C)nccc12 [Harmine, harmine]",Percent Control,[1],100%
same,Percent Control,[2],95%
same,Percent Control,[3],85%
same,Percent Control,[4],95%
same,Percent Control,[5],43%
same,Percent Control,[6],91%
same,Percent Control,[7],100%
same,Percent Control,[8],90%
same,Percent Control,[9],77%
same,Percent Control,[10],94%
same,Percent Control,[11],74%
same,Percent Control,[12],88%
same,Percent Control,[13],6.1%
same,Percent Control,[14],45%
same,Percent Control,[15],39%
same,Percent Control,[16],92%
same,Percent Control,[17],49%
same,Percent Control,[18],93%
same,Percent Control,[19],90%
same,Percent Control,[20],79%
same,Percent Control,[21],43%
same,Percent Control,[22],80%
same,Percent Control,[23],100%
same,Percent Control,[24],100%
same,Percent Control,[25],97%
same,Percent Control,[26],72%
"COc1ccc2c3ccnc(C)c3n(CCN(C)C)c2c1.O=C(O)/C=C/C(=O)O [HTW_A_8 fumarate, 2-(7-methoxy-1-methyl-9H-pyrido[3,4-b]indol-9-yl)-N,N-dimethylethan-1-amine Fumarate Salt (2:3)]",activity at other kinases of the LIPID family (besides PIK3CG),[27],did not exhibit activity for any other kinase in the LIPID family
same,kinase family selectivity,[27]; 97 kinases,selective for kinases in the CMGC family
